# Reference: US20110039762A1, “TARGETED ANTIMICROBIAL MOIETIES” (C3 JIAN, INC., priority 2009, published 2011)
# “Also recorded” adds a separate entry of the source. Ends that are not written are not given here.
# How the values were obtained:
# microorganisms = experiment: Peptides having multiple activities (targeting/binding, antimicrobial, growth or phenotype altering); set-up: key: B: targeting/binding activity;; M: antimicrobial activity;; G: Growth or phenotype altering
# Source text: In certain embodiments, peptides described herein can have multiple activities. Thus for example, a peptide can have both binding/targeting activity and antimicrobial activity. Such peptides can be used, e.g., in a chimeric construct, for any or all of these properties. Thus, for example, a peptide designated “B” in Table 8 can be used as a targeting peptide. If it is also designated G or M it can also be used for antimicrobial activity.
# S. pneumoniae = experiment: Kill or inhibit growth/proliferation; morphology, biofilm and growth disruption (Tables 5, 6); type: cell-based, Streptococcus pneumoniae; set-up: key: A: Peptide aggregates; B: Less hyphal formation; Clumps; Diffuse clumps and small polyps; F: Diffuse growth; H: Thin; I: Growth inhibition; Microcolony formation; Rippled; Small polyps; Thick; W: Halo formation on top, microlonies on bottom; also: test concentration or dose not given here
# [1] = tested on: microorganisms (e.g., bacteria, yeasts, fungi); experiment: Targeting peptide binding to target microorganisms (Table 3); details: preferably 1x PBS; for Target(s): microorganism(s) the targeting peptide binds; for Target(s) (microorganisms bound by the targeting peptide): peptide binding in aqueous buffers varied by peptide solubility
# [2] = peptide binding conducted in aqueous buffers varied by peptide solubility
Substance,Activities (microorganisms),"Organism, effect (S. pneumoniae)","Target(s) [1, 2]","Organism, effect (morphology, biofilm and growth disruption) (S. pneumoniae)",Target(s) (microorganisms bound by the targeting peptide) [1],Target(s) ([1]; binding in aqueous buffers depending on peptide solubility)
HKNKLNIPHIKS [PF-477],G B,S. pneumoniae (H),S. epidermidis; also recorded: M. luteus; also recorded: C. albicans; also recorded: S. pneumoniae; also recorded: C. jeikeium; also recorded: C. jejuni,–,–,–
LHVIRPRPELSELKFPITKILKVNKQGLKK [PF-752],G B,–,–,S. pneumoniae (C),S. epidermidis and E. coli and MRSA and S. pneumoniae and E. faecalis,–
PF-144: peptide having multiple activities (RSGQPVGRPSRRAWLR; Peptide with targeting and/or antimicrobial activity),G B,S. pneumoniae (H),–,–,–,S. epidermidis and M. luteus and E. coli and C. albicans and MRSA and S. pneumoniae and E. faecalis and C. jeikeium
PF-414: peptide having multiple activities (LLNKKLE; Peptide with targeting and/or antimicrobial activity),G B,S. pneumoniae (H),E. coli; also recorded: C. albicans; also recorded: C. jeikeium,–,–,–
PF-416: peptide having multiple activities (SKAGLYGKIERSDKRE; Peptide with targeting and/or antimicrobial activity),G B,S. pneumoniae (H),S. pneumoniae; also recorded: C. jeikeium,–,–,–
PF-421: peptide having multiple activities (KHCFEITDKTDVV; Peptide with targeting and/or antimicrobial activity),G B,S. pneumoniae (H),C. jeikeium,–,–,–
PF-423: peptide having multiple activities (AGKKERLLSFREQFLNKNKKK; Peptide with targeting and/or antimicrobial activity),G B,S. pneumoniae (H),S. epidermidis; also recorded: M. luteus; also recorded: E. coli; also recorded: S. pneumoniae; also recorded: E. faecalis; also recorded: C. jeikeium,–,–,–
PF-424: peptide having multiple activities (IAAFVTSRAFSDTVSPI; Peptide with targeting and/or antimicrobial activity),G B,S. pneumoniae (H),S. epidermidis and C. albicans and MRSA,–,–,–
PF-428: peptide having multiple activities (ENEESIF; Peptide with targeting and/or antimicrobial activity),G B,S. pneumoniae (H),S. epidermidis; also recorded: C. albicans; also recorded: E. faecalis; also recorded: C. jeikeium,–,–,–
PF-433: peptide having multiple activities (MRKEFHNVLSSGQLLADKRPARDYNRK; Peptide with targeting and/or antimicrobial activity),G B,S. pneumoniae (H),S. epidermidis; also recorded: E. coli; also recorded: S. pneumoniae; also recorded: C. jeikeium,–,–,–
PF-434: peptide having multiple activities (GQLLADKRPARDYNRK; Peptide with targeting and/or antimicrobial activity),G B,S. pneumoniae (S),S. epidermidis; also recorded: M. luteus; also recorded: S. pneumoniae; also recorded: C. jeikeium,–,–,–
PF-445: peptide having multiple activities (chain 1 ASMTKRLKLAMSKV; chain 2 ASMTKRLKLAMSKV; Peptide with targeting and/or antimicrobial activity),G B,S. pneumoniae (M),M. luteus; also recorded: S. pneumoniae; also recorded: C. jeikeium,–,–,–
PF-446: peptide having multiple activities (chain 1 SGNEKV; chain 2 SGNEKV; Peptide with targeting and/or antimicrobial activity),G B,S. pneumoniae (H),M. luteus; also recorded: C. jeikeium,–,–,–
PF-457: peptide having multiple activities (chain 1 INKYHHIA; chain 2 INKYHHIA; Peptide with targeting and/or antimicrobial activity),G B,S. pneumoniae (M),C. albicans; also recorded: S. pneumoniae; also recorded: E. faecalis; also recorded: C. jeikeium,–,–,–
PF-459: peptide having multiple activities (chain 1 EKRMSFNENQSHRPLL; chain 2 EKRMSFNENQSHRPLL; Peptide with targeting and/or antimicrobial activity),G B,S. pneumoniae (H),P. aeruginosa,–,–,–
PF-462: peptide having multiple activities (chain 1 KNKTDTL; chain 2 KNKTDTL; Peptide with targeting and/or antimicrobial activity),G B,S. pneumoniae (H),E. faecalis; also recorded: C. jeikeium,–,–,–
PF-464: peptide having multiple activities (chain 1 VDMVNRFLGN; chain 2 VDMVNRFLGN; Peptide with targeting and/or antimicrobial activity),G B,S. pneumoniae (S),S. epidermidis and C. albicans and MRSA and S. pneumoniae and E. faecalis and C. jeikeium and C. jejuni,–,–,–
PF-466: peptide having multiple activities (chain 1 VRKSDQ; chain 2 VRKSDQ; Peptide with targeting and/or antimicrobial activity),G B,S. pneumoniae (H),MRSA and C. jeikeium and C. jejuni,–,–,–
PF-467: peptide having multiple activities (chain 1 YYKDYFKEI; chain 2 YYKDYFKEI; Peptide with targeting and/or antimicrobial activity),G B,S. pneumoniae (H),MRSA and E. faecalis and C. jeikeium and C. jejuni,–,–,–
PF-476: peptide having multiple activities (chain 1 WADAQYKLCENCSE; chain 2 WADAQYKLCENCSE; Peptide with targeting and/or antimicrobial activity),G B,S. pneumoniae (H),M. luteus; also recorded: P. mirabilis; also recorded: C. albicans; also recorded: S. pneumoniae; also recorded: E. faecalis; also recorded: C. jeikeium; also recorded: C. jejuni,–,–,–
PF-513: peptide having multiple activities (chain 1 SNGVGLGVGIGSGIRF-NH2; chain 2 SNGVGLGVGIGSGIRF-NH2),G B,S. pneumoniae (M),C. albicans,–,–,–
PF-515: peptide having multiple activities (chain 1 DKSTQDKDIKQAKLLAQELGL-NH2; chain 2 DKSTQDKDIKQAKLLAQELGL-NH2),G B,S. pneumoniae (H),S. epidermidis; also recorded: C. albicans; also recorded: S. pneumoniae; also recorded: C. jeikeium,–,–,–
PF-516: peptide having multiple activities (ASKQASKQASKQASKQ; Peptide with targeting and/or antimicrobial activity),G,S. pneumoniae (H),–,–,–,–
PF-517: peptide having multiple activities (chain 1 VKPTMTASLISTVC; chain 2 VKPTMTASLISTVC; Peptide with targeting and/or antimicrobial activity),G B,S. pneumoniae (M),C. jejuni,–,–,–
PF-537: peptide having multiple activities (chain 1 LANDYYKKTKKSW; chain 2 LANDYYKKTKKSW; Peptide with targeting and/or antimicrobial activity),G B,S. pneumoniae (C),–,–,–,–
PF-542: peptide having multiple activities (chain 1 KKDNPSLNDQDKNAVLNLLALAK; chain 2 KKDNPSLNDQDKNAVLNLLALAK; Peptide with targeting and/or antimicrobial activity),G B,S. pneumoniae (H),C. jeikeium,–,–,–
PF-573: peptide having multiple activities (chain 1 EKKLIVKLIDSIGKSHEEIVGAG; chain 2 EKKLIVKLIDSIGKSHEEIVGAG; Peptide with targeting and/or antimicrobial activity),G B,S. pneumoniae (C),S. epidermidis; also recorded: S. pneumoniae,–,–,–
PF-625: peptide having multiple activities (SDSTNNARTRKKARDVTTKDIDK; Peptide with targeting and/or antimicrobial activity),G B,S. pneumoniae (H),–,–,S. epidermidis; also recorded: M. luteus; also recorded: S. pneumoniae; also recorded: C. jeikeium,–
